Reference: patent US20160346347A1 (Oculis ehf., priority 2015, published 2016)

Legend:
[1] = assay type: physicochemical
Method: An excess amount of drug was added to aqueous solutions containing up to 20% (w/v) cyclodextrin. The solutions were sonicated at 40-50° C. for 45-60 minutes in sealed glass vials, and then allowed to cool to room temperature (22-23° C.). Small amount of solid drug was then added to each vial, the vial resealed and allowed to equilibrate under constant agitation and protected from light for 7 days at room temperature. When the solutions had reached equilibrium, they were filtered through a 0.45 μm membrane filter and analyzed by high pressure liquid chromatography. […] The complexation efficiency (CE) was determined from the slope of phase-solubility diagrams (plots of total solubility of the drug versus total CD concentration in mol/l) where S0 is the intrinsic solubility of the drug:
The mobile phase consisted of acetonitrile, methanol and water (60:20:20), the flow rate was 1 ml/min, the column oven temperature was 80° C. and the detection wavelength was 205 nm.

[2] = in water (β-cyclodextrin: pure water at room temperature); cited from earlier work

## 2-Hydroxypropyl-α-cyclodextrin
[1]
  CE (complexation efficiency): 0.031
  Solubility in the presence of 5% (w/v) cyclodextrin: 84 µg/mL
  Solubility in the presence of 15% (w/v) cyclodextrin: 460 µg/mL

## 2-Hydroxypropyl-γ-cyclodextrin
[1]
  CE (complexation efficiency): 0.0011
  Solubility in the presence of 5% (w/v) cyclodextrin: 48 ± 4 µg/mL
  Solubility in the presence of 15% (w/v) cyclodextrin: 62 ± 5 µg/mL

## OC[C@H]1O[C@@H]2O[C@H]3[C@H](O)[C@@H](O)[C@@H](O[C@H]4[C@H](O)[C@@H](O)[C@@H](O[C@H]5[C@H](O)[C@@H](O)[C@@H](O[C@H]6[C@H](O)[C@@H](O)[C@@H](O[C@H]7[C@H](O)[C@@H](O)[C@@H](O[C@H]1[C@H](O)[C@H]2O)O[C@@H]7CO)O[C@@H]6CO)O[C@@H]5CO)O[C@@H]4CO)O[C@@H]3CO [α-Cyclodextrin]
[1]
  CE (complexation efficiency): 0.54
  Solubility in the presence of 5% (w/v) cyclodextrin: 760 ± 16 µg/mL
[2]
  aqueous solubility of the cyclodextrin: 13 % (w/v)

## OC[C@H]1O[C@@H]2O[C@H]3[C@H](O)[C@@H](O)[C@@H](O[C@H]4[C@H](O)[C@@H](O)[C@@H](O[C@H]5[C@H](O)[C@@H](O)[C@@H](O[C@H]6[C@H](O)[C@@H](O)[C@@H](O[C@H]7[C@H](O)[C@@H](O)[C@@H](O[C@H]8[C@H](O)[C@@H](O)[C@@H](O[C@H]1[C@H](O)[C@H]2O)O[C@@H]8CO)O[C@@H]7CO)O[C@@H]6CO)O[C@@H]5CO)O[C@@H]4CO)O[C@@H]3CO [β-Cyclodextrin]
[1]
  CE (complexation efficiency): 0.030
[2]
  aqueous solubility of the cyclodextrin: 2 % (w/v)

## OC[C@H]1O[C@@H]2O[C@H]3[C@H](O)[C@@H](O)[C@@H](O[C@H]4[C@H](O)[C@@H](O)[C@@H](O[C@H]5[C@H](O)[C@@H](O)[C@@H](O[C@H]6[C@H](O)[C@@H](O)[C@@H](O[C@H]7[C@H](O)[C@@H](O)[C@@H](O[C@H]8[C@H](O)[C@@H](O)[C@@H](O[C@H]9[C@H](O)[C@@H](O)[C@@H](O[C@H]1[C@H](O)[C@H]2O)O[C@@H]9CO)O[C@@H]8CO)O[C@@H]7CO)O[C@@H]6CO)O[C@@H]5CO)O[C@@H]4CO)O[C@@H]3CO [γ-Cyclodextrin]
[1]
  CE (complexation efficiency): 0.0049
  Solubility in the presence of 5% (w/v) cyclodextrin: 62 ± 0.6 µg/mL
  Solubility in the presence of 15% (w/v) cyclodextrin: 110 ± 1.5 µg/mL
[2]
  aqueous solubility of the cyclodextrin: 25 % (w/v)

## Randomly methylated β-cyclodextrin
[1]
  CE (complexation efficiency): 0.053
  Solubility in the presence of 5% (w/v) cyclodextrin: 130 µg/mL
